Results: patent US6274715A, “Tricyclic erythromycin derivatives” (priority 1997, dated 2001)
In brackets after ≈: the same amount, converted by molar mass.

Legend:
Format in all cases: cell-based
[1] = tested on: STAPHYLOCOCCUS AUREUS ATCC 6538P; assay: In vitro antibacterial activity, MIC, BHI agar dilution; conditions: S. aureus ATCC 6538P, 35-37° C., 20 to 24 hours, unit assumed
[2] = tested on: STAPHYLOCOCCUS AUREUS A5177; assay: as above; conditions: S. aureus A5177, unit assumed
[3] = tested on: STAPHYLOCOCCUS AUREUS A-5278; assay: as above; conditions: S. aureus A-5278, unit assumed
[4] = tested on: STAPHYLOCOCCUS AUREUS CMX 642A; assay: as above; conditions: S. aureus CMX 642A, unit assumed
[5] = tested on: STAPHYLOCOCCUS AUREUS NCTC10649M; assay: as above; conditions: S. aureus NCTC10649M, unit assumed
[6] = tested on: STAPHYLOCOCCUS AUREUS CMX 553; assay: as above; conditions: S. aureus CMX 553, unit assumed
[7] = tested on: STAPHYLOCOCCUS AUREUS 1775; assay: as above; conditions: S. aureus 1775, unit assumed
[8] = tested on: STAPHYLOCOCCUS EPIDERMIDIS 3519; conditions: S. epidermidis 3519; BHI agar; unit assumed
EN[…] ATCC 8043 = assay: In vitro antibacterial activity, MIC, BHI agar dilution; conditions: E. faecium ATCC 8043, unit assumed
Method in brief: (§1)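 BHI agar dilution, 12 plates; inoculum 1:100 (1:10 slow-growing strains), Steers replicator; 35-37° C, 20-24 h. MIC = lowest conc. with no growth/slight haze/sparse colonies vs growth control, visual read. Erythromycin A reference plate.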

M[…] ATCC 4698 = assay: as above; conditions: M. luteus ATCC 4698, unit assumed
Method in brief: as §1

M[…] ATCC 9341 = assay: as above; conditions: M. luteus ATCC 9341, unit assumed
Method in brief: as §1

STR[…] 508 = assay: as above; conditions: S. agalactiae CMX 508, unit assumed
Method in brief: as §1

[9] = tested on: STREPTOCOCCUS BOVIS A-5169; assay: as above; conditions: S. bovis A-5169, unit assumed
[10] = tested on: STREPTOCOCCUS PYOGENES EES61; assay: as above; conditions: S. pyogenes EES61, unit assumed
[11] = tested on: STREPTOCOCCUS PYOGENES 930; assay: as above; conditions: S. pyogenes 930, unit assumed
[12] = tested on: STREPTOCOCCUS PYOGENES PIU 2548; assay: as above; conditions: S. pyogenes PIU 2548, unit assumed
ESCHERICHIA COLI JUHL = conditions: E. coli JUHL; BHI agar; unit assumed
ESCHERICHIA COLI SS = assay: In vitro antibacterial activity, MIC, BHI agar dilution; conditions: E. coli SS, unit assumed
ESCHERICHIA COLI DC-2 = assay: as above; conditions: E. coli DC-2, unit assumed
ESCHERICHIA COLI H560 = assay: as above; conditions: E. coli H560, unit assumed
ESCHERICHIA COLI KNK 437 = conditions: E. coli KNK 437; BHI agar; unit assumed
[13] = tested on: ENTEROBACTER AEROGENES ATCC 13048; assay: In vitro antibacterial activity, MIC, BHI agar dilution; conditions: E. aerogenes ATCC 13048, unit assumed
[14] = tested on: KLEBSIELLA PNEUMONIAE ATCC 8045; assay: as above; conditions: K. pneumoniae ATCC 8045, unit assumed
[15] = tested on: PROVIDENCIA STUARTII CMX 640; conditions: P. stuartii CMX 640; BHI agar; unit assumed
[16] = tested on: PSEUDOMONAS AERUGINOSA BMH10; assay: In vitro antibacterial activity, MIC, BHI agar dilution; conditions: P. aeruginosa BMH10, unit assumed
[17] = tested on: PSEUDOMONAS AERUGINOSA 5007; assay: as above; conditions: P. aeruginosa 5007, unit assumed
[18] = tested on: PSEUDOMONAS AERUGINOSA K799/WT; assay: as above; conditions: P. aeruginosa K799/WT, unit assumed
[19] = tested on: PSEUDOMONAS AERUGINOSA K799/61; assay: as above; conditions: P. aeruginosa K799/61, unit assumed
PSEUDOMONAS CEPACIA 296I = assay: as above; conditions: P. cepacia 296I, unit assumed
[20] = tested on: ACINETOBACTER CALCOACETICUS CMX 669; assay: as above; conditions: A. calcoaceticus CMX 669, unit assumed
[21] = tested on: PSEUDOMONAS AERUGINOSA DPHD-5263; assay: as above; conditions: P. aeruginosa DPHD-5263, unit assumed
[22] = tested on: PSEUDOMONAS AERUGINOSA DPHD-2862; assay: as above; conditions: P. aeruginosa DPHD-2862, unit assumed
CANDIDA ALBICANS CCH 442 = assay: as above; conditions: C. albicans CCH 442, unit assumed
[23] = tested on: MYCOBACTERIUM SMEGMATIS ATCC 114; assay: as above; conditions: M. smegmatis ATCC 114, unit assumed
H. Influenza Dill AMP R = assay: In vitro antibacterial activity against H. Influenza Dill AMP R, MIC; conditions: separate assay, unit assumed
Protocol: Representative compounds of the present invention were assayed in vitro for antibacterial activity as follows: Twelve petri dishes containing successive aqueous dilutions of the test compound mixed with 10 mL of sterilized Brain Heart Infusion (BHI) agar (Difco 0418-01-5) were prepared. Each plate was inoculated with 1:100 (or 1:10 for slow-growing strains, such as Micrococcus and Streptococcus) dilutions of up to 32 different microorganisms, using a Steers replicator block. The inoculated plates were incubated at 35-37° C. for 20 to 24 hours. In addition, a control plate, using BHI agar containing no test compound, was prepared and incubated at the beginning and end of each test.
After incubation, each plate was visually inspected. The minimum inhibitory concentration (MIC) was defmed as the lowest concentration of drug yielding no growth, a slight haze, or sparsely isolated colonies on the inoculum spot as compared to the growth control.
In a separate assay representative compounds of the invention were assayed in vitro for antibacterial activity against the H. Influenza Dill AMP R strain, according to the protocol described above.

SMILES	MIC [1] [µg/mL]	MIC [2] [µg/mL]	MIC [3] [µg/mL]	MIC [4] [µg/mL]	MIC [5] [µg/mL]	MIC [6] [µg/mL]	MIC [7] [µg/mL]	MIC [8] [µg/mL]	MIC (EN[…] ATCC 8043) [µg/mL]	MIC (M[…] ATCC 4698) [µg/mL]	MIC (M[…] ATCC 9341) [µg/mL]	MIC (STR[…] 508) [µg/mL]	MIC [9] [µg/mL]	MIC [10] [µg/mL]	MIC [11] [µg/mL]	MIC [12] [µg/mL]	MIC (ESCHERICHIA COLI JUHL) [µg/mL]	MIC (ESCHERICHIA COLI SS) [µg/mL]	MIC (ESCHERICHIA COLI DC-2) [µg/mL]	MIC (ESCHERICHIA COLI H560) [µg/mL]	also measured
CC[C@H]1OC(=O)[C@H](C)C(=O)[C@H](C)[C@@H](O[C@@H]2O[C@H](C)C[C@H](N(C)C)[C@H]2O)[C@](C)(OC)C[C@@H](C)C2=N[C@H](COCc3cc(C)c4ccccc4n3)CN3C(=O)O[C@@]1(C)[C@H]3[C@H]2C [Example 83]	0.2 (≈ 0.243 µM)	0.2 (≈ 0.243 µM)	> 100	0.2 (≈ 0.243 µM)	0.2 (≈ 0.243 µM)	0.2 (≈ 0.243 µM)	> 100	0.39 (≈ 0.474 µM)	0.05 (≈ 0.0608 µM)	0.39 (≈ 0.474 µM)	0.05 (≈ 0.0608 µM)	0.01 (≈ 0.0122 µM)	0.02 (≈ 0.0243 µM)	0.01 (≈ 0.0122 µM)	100 (≈ 122 µM)	0.39 (≈ 0.474 µM)	> 100	1.56 (≈ 1.9 µM)	> 100	> 100	MIC (ESCHERICHIA COLI KNK 437): > 100 µg/mL; MIC [13]: > 100 µg/mL; MIC [14]: > 100 µg/mL; MIC [15]: > 100 µg/mL; MIC [16]: > 100 µg/mL; MIC [17]: > 100 µg/mL; MIC [18]: > 100 µg/mL; MIC [19]: 6.2 µg/mL (≈ 7.53 µM); MIC (PSEUDOMONAS CEPACIA 296I): 50 µg/mL (≈ 60.8 µM); MIC [20]: 100 µg/mL (≈ 122 µM); MIC [21]: > 100 µg/mL; MIC [22]: > 100 µg/mL; MIC (CANDIDA ALBICANS CCH 442): > 100 µg/mL; MIC [23]: 0.39 µg/mL (≈ 0.474 µM); MIC (H. Influenza Dill AMP R): 16 µg/mL (≈ 19.4 µM)
CC[C@H]1OC(=O)[C@H](C)C(=O)[C@H](C)[C@@H](O[C@@H]2O[C@H](C)C[C@H](N(C)C)[C@H]2O)[C@](C)(OC)C[C@@H](C)C2=N[C@H](CCOCc3ccccc3)CN3C(=O)O[C@@]1(C)[C@H]3[C@H]2C [Example 92]	0.39 (≈ 0.505 µM)	0.2 (≈ 0.259 µM)	> 100	0.39 (≈ 0.505 µM)	0.39 (≈ 0.505 µM)	0.39 (≈ 0.505 µM)	> 100	0.39 (≈ 0.505 µM)	0.1 (≈ 0.13 µM)	0.39 (≈ 0.505 µM)	0.05 (≈ 0.0648 µM)	0.05 (≈ 0.0648 µM)	0.05 (≈ 0.0648 µM)	0.05 (≈ 0.0648 µM)	100 (≈ 130 µM)	0.39 (≈ 0.505 µM)	> 100	1.56 (≈ 2.02 µM)	> 100	> 100	MIC (ESCHERICHIA COLI KNK 437): > 100 µg/mL; MIC [13]: > 100 µg/mL; MIC [14]: > 100 µg/mL; MIC [15]: > 100 µg/mL; MIC [16]: > 100 µg/mL; MIC [17]: > 100 µg/mL; MIC [18]: > 100 µg/mL; MIC [19]: 6.2 µg/mL (≈ 8.03 µM); MIC (PSEUDOMONAS CEPACIA 296I): > 100 µg/mL; MIC [20]: > 100 µg/mL; MIC [21]: > 100 µg/mL; MIC [22]: > 100 µg/mL; MIC (CANDIDA ALBICANS CCH 442): > 100 µg/mL; MIC [23]: 1.56 µg/mL (≈ 2.02 µM); MIC (H. Influenza Dill AMP R): 32 µg/mL (≈ 41.5 µM)
CCC1OC(=O)C(C)C(=O)C(C)C(OC2OC(C)CC(N(C)C)C2O)C(C)(OC)CC(C)C2=NC(COCSC)CN3C(=O)OC1(C)C3C2C (stereo not drawn) [Example 99]	0.39 (≈ 0.536 µM)	0.39 (≈ 0.536 µM)	> 100	0.39 (≈ 0.536 µM)	0.39 (≈ 0.536 µM)	0.39 (≈ 0.536 µM)	> 100	0.39 (≈ 0.536 µM)	0.1 (≈ 0.137 µM)	0.39 (≈ 0.536 µM)	0.1 (≈ 0.137 µM)	0.05 (≈ 0.0687 µM)	0.05 (≈ 0.0687 µM)	0.05 (≈ 0.0687 µM)	> 100	0.39 (≈ 0.536 µM)	> 100	0.78 (≈ 1.07 µM)	> 100	> 100	MIC (ESCHERICHIA COLI KNK 437): > 100 µg/mL; MIC [13]: > 100 µg/mL; MIC [14]: > 100 µg/mL; MIC [15]: > 100 µg/mL; MIC [16]: > 100 µg/mL; MIC [17]: > 100 µg/mL; MIC [18]: > 100 µg/mL; MIC [19]: 6.2 µg/mL (≈ 8.52 µM); MIC (PSEUDOMONAS CEPACIA 296I): > 100 µg/mL; MIC [20]: 100 µg/mL (≈ 137 µM); MIC [21]: > 100 µg/mL; MIC [22]: > 100 µg/mL; MIC (CANDIDA ALBICANS CCH 442): > 100 µg/mL; MIC [23]: 3.1 µg/mL (≈ 4.26 µM); MIC (H. Influenza Dill AMP R): 32 µg/mL (≈ 44 µM)
